Laboratory results from patent publication US20100196907A1, “MARKERS TO PREDICT AND MONITOR RESPONSE TO AURORA KINASE B INHIBITOR THERAPY” (ABBOTT LABORATORIES, priority 2009, published 2010).

Experiments:
SW620^ABCB1/3 cells [1] = assay: intracellular drug concentration by LC-MS; format: in vitro ADME, human; conditions: 1 μM for 4 hours
Procedure: SW620 and SW620^ABCB1/3 cells were washed and allowed to grow in drug-free medium overnight. […] Cytosolic drug accumulation was determined by LC-MS analysis. Briefly, cells were rinsed once with PBS and extracted in cell lysis buffer. The medium, PBS wash, and cell lysate were treated with 2 volumes of acidified MeOH. Crude whole-cell lysates were then clarified by centrifugation at 15000 g for 15 minutes at 4° C. yielding an insoluble cell pellet and cytosol. The insoluble cell pellet was diluted 1:10 with 50% acetonitrile and centrifuged at 11,000 g for 5 minutes.

SW620^ABCB1/3 cells [2] = assay: histone H3 phosphorylation immunoblot, SW620^ABCB1/3; format: cell-based, human
Procedure: (§1) SW620 and SW620^ABCB1/3 cells were washed and allowed to grow in drug-free medium overnight. […] The lysates were then probe-sonicated for 10 seconds then clarified by centrifugation at 15,000 g for 15 minutes at 4° C. After treatment with SDS-sample buffer, protein extracts were resolved on NuPAGE Bis-Tris 4-12% gels (Invitrogen (Carlsbad, Calif.)). Samples were electrotransferred to PVDF membranes (Invitrogen (Carlsbad, Calif.)), incubated with primary antibody overnight, and developed using Pierce Dura-Signal chemiluminescence reagents (Pierce, Rockford, Ill.), or Odyssey infrared imaging system from LI-COR Biosciences (Lincoln, Nebr.).

SW620^ABCB1/3 tumors = assay: intratumor pharmacokinetics, SW620^ABCB1/3 xenografts; format: in vivo, mice
Procedure: C.B.-17 scid-bg (scid-bg) or C.B.-17 scid (scid) mice were obtained from Charles River Laboratories (Wilmington, Mass., USA) at 5-6 weeks of age and used for studies when greater than 8 weeks of age and/or about 20 grams in size. All animal studies were conducted in a specific pathogen-free environment in accordance with the Internal Institutional Animal Care and Use Committee (IACUC), accredited by the American Association of Laboratory Animal Care under conditions that meet or exceed the standards set by the United States Department of Agriculture Animal Welfare Act, Public Health Service policy on humane care and use of animals and the NIH guide on laboratory animal welfare. Overt signs of dehydration, lack of grooming, lethargy, greater than 15% weight loss as well as tumor volume greater then 20% body weight were used to determine tumor end point. SW620 cell lines were obtained from the ATCC (Manassas, Va.) and cultured according to their recommendations without antibiotics and routinely tested for Mycoplasma and confirmed to be microbe-free by infectious microbe PCR amplification test (IMPACT; Missouri Research Animal Diagnostic Laboratory, Columbia, Mo.) prior to in vivo inoculation. […] Two bisecting diameters were measured with calipers and tumor volumes were estimated from the formula: (length×width^2)/2. […]

SW620^ABCB1/3 xenografts = assay: tumor histone H3 phosphorylation, SW620^ABCB1/3 xenografts; format: in vivo, mice
Procedure: as §1, with “Nebr.). C.B.-17 scid-bg (scid-bg) or C.B.-17 scid (scid) mice were obtained from Charles River Laboratories (Wilmington, Mass., USA) at 5-6 weeks of age and used for studies when greater than 8 weeks of age and/or about 20 grams in size. […] Two bisecting diameters were measured with calipers and tumor volumes were estimated from the formula: (length×width^2)/2. […]” for “Nebr.).”

Structure (SMILES): CCN(CCO)CCCOc1ccc2c(Nc3cc(CC(=O)Nc4cccc(F)c4)[nH]n3)ncnc2c1 [AZD1152 HQPA]
- drug in the cytosol compared to parental SW620 cells (SW620^ABCB1/3 cells [1]): Significantly less drug
- intrinsic potency (histone H3 phosphorylation) (SW620^ABCB1/3 cells [2]; SW620^ABCB1/3): 2 µM
- more drug required to inhibit histone H3 phosphorylation than the parental line (SW620^ABCB1/3 cells [2]; SW620^ABCB1/3 vs parental SW620, 90 minutes): approximately 100 fold
- period of tumor concentration above threshold (SW620^ABCB1/3 tumors; SW620^ABCB1/3 tumors, single i.p. 100 mg kg^−1): ~6 h
- overall tumor AUC compared to the parental cohort (SW620^ABCB1/3 tumors; single IP administration, 24-hour period post-dose): reduction in the overall tumor AUC
- inhibition of histone H3 phosphorylation in tumors (SW620^ABCB1/3 xenografts; SW620^ABCB1/3 tumors, single dose 100 mg kg^−1 i.p.): transient inhibition
- minimum threshold intratumor concentration to inhibit histone H3 phosphorylation (SW620^ABCB1/3 xenografts; SW620^ABCB1/3 xenografts, potency x fold loss in 50% (v/v) mouse plasma): 10 µM
